Measurements published in patent publication US20250121076A1, “POLYPEPTIDE DRUG CONJUGATE HAVING NOVEL STRUCTURE AND APPLICATION THEREOF” (MEDSHINE DISCOVERY INC., priority 2021, published 2025).
Counter-ions that a name gives are not always drawn. Like-named read-outs stand apart in the source and are kept apart here. Starred links: 1 amine or outer side, 2 acyl side, 3 side chain; linkers in the order of their positions; H or OH if unused. Positions of bridges follow the written chain, without caps; N, C: chain ends. Non-standard residues stand in square brackets, D forms with d. Residues, ends and D or L forms follow the SMILES beside them. Chains are numbered I, II in the order given. *: point of attachment. TATA = O=C(CC[*:1])N1CN(C(=O)CC[*:2])CN(C(=O)CC[*:3])C1; Dolaproine = CO[C@@H]([C@@H]1CCCN1)[C@@H](C)C(=O)O; Dil = CC[C@H](C)[C@H](NC)[C@@H](CC(=O)O)OC; X2 = O=C(CCCC(=O)[*:2])NCCC(=O)[*:1]; PABC = O=C(OCc1ccc(N[*:1])cc1)[*:2]; X1 = C[C@@H](N*)[C@@H](O)c1ccccc1; Hyp = O=C(O)[C@@H]1C[C@@H](O)CN1; hArg = N=C(N)NCCCC[C@H](N)C(=O)O; Cit = NC(=O)NCCC[C@H](N)C(=O)O; NMeV = CN[C@H](C(=O)O)C(C)C; hCys = N[C@@H](CCS)C(=O)O; Sar = CNCC(=O)O

Legend:
Human EphA2 = biological target: T1, Human EphA2 (Homo sapiens, UniProt P29317); assay: Binding capacity test to EphA2 protein (SPR, Biacore 8K)
T1 construct: purchased Sino Biological 13926-H08HD
Description: To detect the affinity of the compound to be tested to the target protein EphA2 using the SPR method.
• Biacore 8K (GE Healthcare). • 96-well Plate (Cat #650101, greiner bio-one) • CM5 chip (Cat #BR-1005-30, GE Healthcare) • Amine Coupling Kit (Cat #BR-1000-50, GE Healthcare) EDC NHS 1 M ethanolamine. • 10 mM sodium acetate pH 4.5 (Cat #BR-1003-50, GE Healthcare) • DMSO (Cat #D4540, Sigma) • P20 (Cat #BR-1000-54, GE Healthcare). • PBS (Cat #BR-1006-72, GE Healthcare). • EphA2 (Cat #13926-H08HD, Sino Biological)
In this experiment, the amino coupling method was used. The target protein EphA2 was directly immobilized on the CM5 chip using Biacore 8K. The compound to be tested as an analyte was then diluted to a required concentration gradient with a buffer (10 mM PBS, pH 7.4, 137 mM NaCl, 2.7 mM KCl, 5% DMSO, and 0.05% P20) for multi-cycle kinetic detection, in which each cycle is formed by 180 seconds of sample injection and 180 seconds of dissociation, and then the next cycle was performed, to obtain kinetic analysis data on the affinity of the target protein EphA2 to the compound to be tested. The final data were subjected to Kinetics fitting analysis based on a 1:1 model using Biacore Insight Evaluation Software (V 2.0.15.12933).
1) Preparation of the buffer: 10 mM PBS, pH 7.4, 137 mM NaCl, 2.7 mM KCl, 5% DMSO, and 0.05% P20.
2) Activation of the CM5 chip: The CM5 chip was activated with 400 mM EDC and 100 mM NHS at a flow rate of 10 μL/min for 420 seconds.
3) Coupling of the target protein: The target protein was diluted to 10 μg/mL with 10 mM sodium acetate (pH 4.5) and coupled at a flow rate of 10 μL/min for 284 s. The 1 #, 2 #, and 3 #channels on the chip were used in the experiment, and the coupling results were 1639.9RU, 1747.8RU, and 1702.2RU, respectively.
4) Blocking of the CM5 chip: The CM5 chip was blocked with 1 M ethanolamine at a flow rate of 10 μL/min for 420 seconds.
5) Analyte concentration: The compound to be tested was diluted with the buffer. The compound to be tested was diluted from 100 nM to 0.78 nM in a 2-fold gradient.
6) Sample injection analysis: Each concentration of the working solution of the compound to be tested corresponded to one cycle, with a flow rate of 30 μL/min for binding for 180 seconds and dissociating for 180 seconds. The last cycle was a 5% DMSO solvent correction cycle. 7) All results were subjected to kinetics fitting analysis based on a 1:1 model.
The experimental data of five effective concentrations of the compounds of the present invention were selected for Kinetics fitting analysis based on a 1:1 model using Biacore Insight Evaluation Software (V 2.0.15.12933).

[1] = In vivo pharmacokinetic analysis in mice; design: species or system CD-1 mice; settings: MMAE as potential metabolite in plasma after single IV 2 mg/kg acetate salt of PDC_8, CD-1 mice
Description: To test the pharmacokinetics of the compounds of the present invention in CD-1 mice
The pharmacokinetic characteristics of the compound after intravenous injection and oral administration were tested in CD-1 mice according to a standard protocol. The compound of the present invention was formulated into a clear solution using 50 mM acetate buffer (pH=5) in 10% sucrose as a vehicle. Two mice were given a single intravenous injection of 2 mg/kg of the compound to be tested. Whole blood was collected at time points of 0.083, 0.25, 0.5, 1, 2, 4, 8, and 24 hours after administration to get plasma. The concentration of the compound to be tested and the concentration of its potential metabolite MMAE were analyzed by the LC-MS/MS method, and the pharmacokinetic parameters, such as maximal concentration (Cmax), clearance (Cl), half-life (T1/2), […] (Vdss), and area under the concentration-time curve (AUC0-last), were calculated by Phoenix WinNonlin software.

[2] = Pharmacokinetic analysis in rat plasma (6.1, 2 mg/kg); format: in vivo, SD rats; settings: MMAE as potential metabolite in plasma after single IV 2 mg/kg acetate salt of PDC_8, SD rats
Description: (§1) Experimental purpose: To test the pharmacokinetics of the compounds of the present invention in SD rats.
(§2) 6.1 The pharmacokinetic characteristics of the compound after intravenous injection and oral administration were tested in rats according to a standard protocol. The compound to be tested was formulated into a clear solution using 50 mM acetate buffer (pH=5) in 10% sucrose as a vehicle. Two SD rats were given a single intravenous injection of 2 mg/kg of the compound to be tested. Whole blood was collected at time points of 0.083, 0.25, 0.5, 1, 2, 4, 8, and 24 hours after administration to get plasma. The concentration of the compound to be tested and the concentration of its potential metabolite MMAE were analyzed by the LC-MS/MS method, and the pharmacokinetic parameters were calculated by Phoenix WinNonlin software.

[3] = Pharmacokinetic analysis in rat plasma at different doses (6.2); format: in vivo, SD rats
Description: as §1
as §2, with “6.2 The” for “6.1 The”, “vehicle. Three male” for “vehicle. Two”, “of 2.5 mg/kg, 3.75 mg/kg, or 5” for “of 2”, “1,” for “1, 2,”, “4,” for “4, 8,”, “were calculated.” for “were calculated by Phoenix WinNonlin software.”

[4] = Pharmacokinetic analysis in Cynomolgus macaque plasma; format: in vivo, Cynomolgus macaques; settings: MMAE as potential metabolite in plasma after single IV 1 mg/kg acetate salt of PDC_8, Cynomolgus macaques
Description: To test the pharmacokinetics of the compounds of the present invention in Cynomolgus macaques.
as §2, with “The pharmacokinetic” for “6.1 The pharmacokinetic”, “tested in Cynomolgus macaques according to” for “tested in rats according to”, “The compound of the present invention was formulated” for “The compound to be tested was formulated”, “vehicle. Two Cynomolgus macaques were given” for “vehicle. Two SD rats were given”, “injection of 1 mg/kg of” for “injection of 2 mg/kg of”

[5] = MMAE as potential metabolite after single IV 2.5 mg/kg acetate salt of PDC_8, male SD rats
[6] = MMAE as potential metabolite after single IV 3.75 mg/kg acetate salt of PDC_8, male SD rats
[7] = MMAE as potential metabolite after single IV 5 mg/kg acetate salt of PDC_8, male SD rats

T1 sequence (P29317 24-534 limits assumed): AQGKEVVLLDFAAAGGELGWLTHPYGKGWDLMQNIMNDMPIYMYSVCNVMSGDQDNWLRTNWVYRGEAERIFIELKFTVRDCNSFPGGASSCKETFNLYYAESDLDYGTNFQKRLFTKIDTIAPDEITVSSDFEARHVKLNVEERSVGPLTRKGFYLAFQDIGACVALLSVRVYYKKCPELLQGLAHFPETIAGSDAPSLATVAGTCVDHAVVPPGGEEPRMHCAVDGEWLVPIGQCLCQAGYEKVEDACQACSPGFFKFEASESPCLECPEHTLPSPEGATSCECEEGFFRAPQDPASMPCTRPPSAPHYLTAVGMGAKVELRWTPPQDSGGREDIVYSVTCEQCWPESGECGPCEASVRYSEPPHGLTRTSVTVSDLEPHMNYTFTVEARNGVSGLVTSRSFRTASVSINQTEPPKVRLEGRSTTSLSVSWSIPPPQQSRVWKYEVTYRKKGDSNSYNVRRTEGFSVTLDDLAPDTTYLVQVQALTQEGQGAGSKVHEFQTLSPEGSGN

CC[C@H](C)[C@@H]([C@@H](CC(=O)N1CCC[C@H]1[C@H](OC)[C@@H](C)C(=O)N[C@H](C)[C@@H](O)c1ccccc1)OC)N(C)C(=O)[C@@H](NC(=O)[C@H](C(C)C)N(C)C(=O)OCc1ccc(NC(=O)[C@H](CCCNC(N)=O)NC(=O)[C@@H](NC(=O)CCCC(=O)NCCC(=O)N(C)CC(=O)N(C)CC(=O)N(C)CC(=O)N(C)CC(=O)N(C)CC(=O)N(C)CC(=O)N(C)CC(=O)N(C)CC(=O)N(C)CC(=O)N(C)CC(=O)N[C@@H](C)C(=O)N[C@@H](CCCCNC(=N)N)C(=O)N[C@@H](CC(=O)O)C(=O)N[C@H]2CCSCCC(=O)N3CN4CN(C3)C(=O)CCSC[C@H](NC(=O)[C@H](CC(C)C)NC(=O)[C@@H]3CCCN3C(=O)[C@H](CC(N)=O)NC(=O)[C@H](C(C)C)NC(=O)[C@H](CC(C)C)NC(=O)[C@@H]3C[C@@H](O)CN3C2=O)C(=O)N[C@@H](CC(C)C)C(=O)N[C@@H](Cc2c[nH]cn2)C(=O)N2CCC[C@H]2C(=O)N[C@H](CC(=O)O)C(=O)N[C@@H](Cc2c[nH]c3ccccc23)C(=O)N[C@@H](CCCCNC(=N)N)C(=O)N[C@H](C(N)=O)CSCCC4=O)C(C)C)cc1)C(C)C [Acetate salt of PDC_2, MMAE-PABC-Cit-Val-Glutaryl-β-Ala-Sar10-Ala-hArg-Asp-hCys-Hyp-Leu-Val-Asn-Pro-Leu-Cys-Leu-His-Pro-dAsp-Trp-hArg-Cys-NH2, TATA] (I: [Sar][Sar][Sar][Sar][Sar][Sar][Sar][Sar][Sar][Sar]A[hArg]D[hCys][Hyp]LVNPLCLHP[dD]W[hArg]C-NH2 / II: V[Cit][PABC][NMeV]V[Dil][Dolaproine]-X1; linker I:14-I:21-I:28 via TATA; linker I:N-II:N via X2)
Kd (Human EphA2; read-out: Human EphA2 SPR kD, SPR, kinetics fit 1:1 model): 33 nM

CC[C@H](C)[C@@H]([C@@H](CC(=O)N1CCC[C@H]1[C@H](OC)[C@@H](C)C(=O)N[C@H](C)[C@@H](O)c1ccccc1)OC)N(C)C(=O)[C@@H](NC(=O)[C@H](C(C)C)N(C)C(=O)OCc1ccc(NC(=O)[C@H](CCCNC(N)=O)NC(=O)[C@@H](NC(=O)CCCC(=O)NCCC(=O)N(C)CC(=O)N(C)CC(=O)N(C)CC(=O)N(C)CC(=O)N(C)CC(=O)N(C)CC(=O)N(C)CC(=O)N(C)CC(=O)N(C)CC(=O)N(C)CC(=O)N[C@H]2CCCCNC(=O)C[C@@H](C(=O)N[C@H]3CSCCC(=O)N4CN5CN(C4)C(=O)CCSC[C@H](NC(=O)[C@H](CC(C)C)NC(=O)[C@@H]4CCCN4C(=O)[C@H](CC(N)=O)NC(=O)[C@H](C(C)C)NC(=O)[C@H](CC(C)C)NC(=O)[C@@H]4C[C@@H](O)CN4C3=O)C(=O)N[C@@H](CC(C)C)C(=O)N[C@@H](Cc3c[nH]cn3)C(=O)N3CCC[C@H]3C(=O)N[C@H](CC(=O)O)C(=O)N[C@@H](Cc3c[nH]c4ccccc34)C(=O)N[C@@H](CCCCNC(=N)N)C(=O)N[C@H](C(N)=O)CSCCC5=O)NC(=O)[C@H](CCCCNC(=N)N)NC2=O)C(C)C)cc1)C(C)C [Acetate salt of PDC_4] (I: [Sar][Sar][Sar][Sar][Sar][Sar][Sar][Sar][Sar][Sar]K[hArg]DC[Hyp]LVNPLCLHP[dD]W[hArg]C-NH2 / II: V[Cit][PABC][NMeV]V[Dil][Dolaproine]-X1; lactam I:11-I:13; linker I:14-I:21-I:28 via TATA; linker I:N-II:N via X2)
Kd (Human EphA2): 13.3 nM

CC[C@H](C)[C@@H]([C@@H](CC(=O)N1CCC[C@H]1[C@H](OC)[C@@H](C)C(=O)N[C@H](C)[C@@H](O)c1ccccc1)OC)N(C)C(=O)[C@@H](NC(=O)[C@H](C(C)C)N(C)C(=O)OCc1ccc(NC(=O)[C@H](CCCNC(N)=O)NC(=O)[C@@H](NC(=O)CCCC(=O)NCCC(=O)N(C)CC(=O)N(C)CC(=O)N(C)CC(=O)N(C)CC(=O)N(C)CC(=O)N(C)CC(=O)N(C)CC(=O)N(C)CC(=O)N(C)CC(=O)N(C)CC(=O)N[C@H]2CCCCNC(=O)C[C@@H](C(=O)N[C@H]3CSCCC(=O)N4CN5CN(C4)C(=O)CCSC[C@H](NC(=O)[C@H](CC(C)C)NC(=O)[C@@H]4CCCN4C(=O)[C@H](CC(N)=O)NC(=O)[C@H](C(C)C)NC(=O)[C@H](CC(C)C)NC(=O)[C@@H]4C[C@@H](O)CN4C3=O)C(=O)N[C@@H](CC(C)C)C(=O)N[C@@H](Cc3c[nH]cn3)C(=O)N3CCC[C@H]3C(=O)N[C@H](CC(=O)O)C(=O)N[C@@H](Cc3c[nH]c4ccccc34)C(=O)N[C@@H](CCCCNC(=N)N)C(=O)N[C@H](C(N)=O)CCSCCC5=O)NC(=O)[C@H](CCCCNC(=N)N)NC2=O)C(C)C)cc1)C(C)C [Acetate salt of PDC_5] (I: [Sar][Sar][Sar][Sar][Sar][Sar][Sar][Sar][Sar][Sar]K[hArg]DC[Hyp]LVNPLCLHP[dD]W[hArg][hCys]-NH2 / II: V[Cit][PABC][NMeV]V[Dil][Dolaproine]-X1; lactam I:11-I:13; linker I:14-I:21-I:28 via TATA; linker I:N-II:N via X2)
Kd (Human EphA2): 6.73 nM

CC[C@H](C)[C@@H]([C@@H](CC(=O)N1CCC[C@H]1[C@H](OC)[C@@H](C)C(=O)N[C@H](C)[C@@H](O)c1ccccc1)OC)N(C)C(=O)[C@@H](NC(=O)[C@@H](NC)C(C)C)C(C)C [MMAE, monomethyl auristatin E] (H-[NMeV]V[Dil][Dolaproine]-X1)
AUC0-last [1]: 0.0515 µM·h | Cmax [1]: 55 nM | AUC0-last [2]: 0.0374 µM·h | Cmax [2]: 23.5 nM | AUC0-last [3, 5]: 0.058 µM·h | Cmax [3, 5]: 29 nM | AUC0-last [3, 6]: 0.185 µM·h | Cmax [3, 6]: 39 nM | AUC0-last [3, 7]: 0.435 µM·h | Cmax [3, 7]: 52 nM | AUC0-last [4]: 0.0288 µM·h | Cmax [4]: 5.6 nM
